# Laboratory results from patent US11903387B2 (priority 2016, dated 2024).
# Values joined by “and” are separate entries in the source; they are usually repeats but may differ in a detail not shown here. Equal entries are not always repeated. Where two headings read alike, the source gives them in different places.
# Legend:
# Phytophthora infestans = assay: whole plant or invertebrate; assay type: in vivo
# [1] = test system: Pseudoperonospora cubensis; assay: Test 2: control effect against cucumber downy mildew; assay type: in vivo
# [2] = Phytophthora infestans, in Solanum lycopersicum, read-out: Test 1 Measured preventive value, component (b) alone, 0.4 ppm
# [3] = Phytophthora infestans, in Solanum lycopersicum, read-out: Test 1 Measured preventive value, component (b) alone, 2 ppm
compound,measurement,setting,value
"Cc1cc(C(F)(F)F)nn1CC(=O)N1CCC(c2nc(C3OCc4c(F)ccc(OS(C)(=O)=O)c4CO3)cs2)CC1 (stereo not drawn) [Compound 1-8, 4-[4-(6-fluoro-9-methylsulfonyloxy-1,5-dihydro-3H-2,4-benzodioxepin-3-yl)-2-thiazolyl]-1-[2-[5-methyl-3-(trifluoromethyl)-1H-pyrazol-1-yl]acetyl]piperidine]",Test 1 Measured preventive value,"Phytophthora infestans; Compound alone, 0.3 ppm",100
same,pest or weed control at 0.012 ppm,"Phytophthora infestans; Phytophthora infestans, in Solanum lycopersicum, read-out: Test 1 Measured preventive value, Compound alone, 0.012 ppm",30%
same,pest or weed control at 0.06 ppm,"Phytophthora infestans; Phytophthora infestans, in Solanum lycopersicum, read-out: Test 1 Measured preventive value, Compound alone, 0.06 ppm",98%
same,pest or weed control at 0.3 ppm,"Phytophthora infestans; Phytophthora infestans, in Solanum lycopersicum, read-out: Test 1 Measured preventive value, Compound alone, 0.3 ppm",100%
same,pest or weed control at 0.06 ppm,"Phytophthora infestans; Phytophthora infestans, in Solanum lycopersicum, read-out: Test 1 Measured, Compound alone 0.06 ppm",96.2%
same,pest or weed control at 0.3 ppm,"Phytophthora infestans; Phytophthora infestans, in Solanum lycopersicum, read-out: Test 1 Measured, Compound alone 0.3 ppm",100%
same,pest or weed control at 0.012 ppm,"Phytophthora infestans; Phytophthora infestans, in Solanum lycopersicum, read-out: Test 1 preventive value, Measured, applied alone, 0.012 ppm",43.3%
same,pest or weed control at 0.06 ppm,"Phytophthora infestans; Phytophthora infestans, in Solanum lycopersicum, read-out: Test 1 preventive value, Measured, applied alone, 0.06 ppm",97.7%
same,pest or weed control at 0.3 ppm,"Phytophthora infestans; Phytophthora infestans, in Solanum lycopersicum, read-out: Test 1 preventive value, Measured, applied alone, 0.3 ppm",100%
same,Test 2 Measured preventive value,"[1]; Compound alone, 0.012 ppm",10 and 12.5 and 15
same,Test 2 Measured preventive value,"[1]; Compound alone, 0.06 ppm",95.5 and 96.5 and 97.5
same,Test 2 Measured preventive value,"[1]; Compound alone, 0.3 ppm",100
same,pest or weed control at 0.06 ppm,"[1]; Pseudoperonospora cubensis, Compound alone 0.06 ppm, read-out: Test 2 Measured",98.8%
same,pest or weed control at 0.3 ppm,"[1]; Pseudoperonospora cubensis, Compound alone 0.3 ppm, read-out: Test 2 Measured",100%
same,pest or weed control at 0.06 ppm,"[1]; Pseudoperonospora cubensis, applied alone, 0.06 ppm, read-out: Test 2 preventive value, Measured",98%
same,pest or weed control at 0.3 ppm,"[1]; Pseudoperonospora cubensis, applied alone, 0.3 ppm, read-out: Test 2 preventive value, Measured",100%
same,"Test 2 preventive value, Measured","[1]; applied alone, 0.06 ppm",98
"CS(=O)(=O)Oc1ccc(F)c2c1COC(c1csc(C3CCN(C(=O)Cn4nc(C(F)F)cc4C(F)F)CC3)n1)OC2 (stereo not drawn) [Compound 1-62, 4-[4-(6-fluoro-9-methylsulfonyloxy-1,5-dihydro-3H-2,4-benzodioxepin-3-yl)-2-thiazolyl]-1-[2-[3,5-bis(difluoromethyl)-1H-pyrazol-1-yl]acetyl]piperidine]",pest or weed control at 0.0024 ppm,"Phytophthora infestans; Phytophthora infestans, in Solanum lycopersicum, read-out: Test 1 Measured, Compound 1-62 alone, 0.0024 ppm",59%
same,pest or weed control at 0.012 ppm,"Phytophthora infestans; Phytophthora infestans, in Solanum lycopersicum, read-out: Test 1 Measured, Compound 1-62 alone, 0.012 ppm",98%
same,pest or weed control at 0.06 ppm,"Phytophthora infestans; Phytophthora infestans, in Solanum lycopersicum, read-out: Test 1 Measured, Compound 1-62 alone, 0.06 ppm",100%
same,pest or weed control at 0.0024 ppm,"[1]; Pseudoperonospora cubensis, Compound 1-62 alone, 0.0024 ppm, read-out: Test 2 Measured",86%
same,pest or weed control at 0.012 ppm,"[1]; Pseudoperonospora cubensis, Compound 1-62 alone, 0.012 ppm, read-out: Test 2 Measured",100%
same,pest or weed control at 0.06 ppm,"[1]; Pseudoperonospora cubensis, Compound 1-62 alone, 0.06 ppm, read-out: Test 2 Measured",100%
Cc1ccc(-c2c(Cl)nc(C#N)n2S(=O)(=O)N(C)C)cc1 [Cyazofamid],pest or weed control at 0.08 ppm,"Phytophthora infestans; Phytophthora infestans, in Solanum lycopersicum, read-out: Test 1 Measured preventive value, component (b) alone 0.08 ppm, average of three repeats",46.7%
same,pest or weed control at 0.4 ppm,"Phytophthora infestans; Phytophthora infestans, in Solanum lycopersicum, read-out: Test 1 Measured preventive value, component (b) alone 0.4 ppm, average of three repeats",95.5%
same,pest or weed control at 2 ppm,"Phytophthora infestans; Phytophthora infestans, in Solanum lycopersicum, read-out: Test 1 Measured preventive value, component (b) alone 2 ppm, average of three repeats",100%
same,pest or weed control at 0.08 ppm,"Phytophthora infestans; Phytophthora infestans, in Solanum lycopersicum, read-out: Test 1 Measured preventive value, component (b) alone, 0.08 ppm",46.7%
same,pest or weed control at 0.4 ppm,Phytophthora infestans; [2],95.5%
same,pest or weed control at 2 ppm,Phytophthora infestans; [3],100%
same,pest or weed control at 0.08 ppm,"Phytophthora infestans; Phytophthora infestans, in Solanum lycopersicum, read-out: Test 1 Measured, component (b) alone, 0.08 ppm",32%
same,pest or weed control at 0.4 ppm,"Phytophthora infestans; Phytophthora infestans, in Solanum lycopersicum, read-out: Test 1 Measured, component (b) alone, 0.4 ppm",96%
same,pest or weed control at 2 ppm,"Phytophthora infestans; Phytophthora infestans, in Solanum lycopersicum, read-out: Test 1 Measured, component (b) alone, 2 ppm",100%
same,pest or weed control at 0.003 ppm,"[1]; Pseudoperonospora cubensis, component (b) alone, 0.003 ppm, read-out: Test 2 Measured",0%
same,pest or weed control at 0.08 ppm,"[1]; Pseudoperonospora cubensis, component (b) alone, 0.08 ppm, read-out: Test 2 Measured",99%
same,pest or weed control at 0.4 ppm,"[1]; Pseudoperonospora cubensis, component (b) alone, 0.4 ppm, read-out: Test 2 Measured",100%
same,Test 2 Measured preventive value,"[1]; component (b) alone 0.003 ppm, average of three repeats",0
same,Test 2 Measured preventive value,"[1]; component (b) alone 0.08 ppm, average of three repeats",99.5
same,Test 2 Measured preventive value,"[1]; component (b) alone 0.4 ppm, average of three repeats",100
same,Test 2 Measured preventive value,"[1]; component (b) alone, 0.003 ppm",0
same,Test 2 Measured preventive value,"[1]; component (b) alone, 0.08 ppm",99.5
same,Test 2 Measured preventive value,"[1]; component (b) alone, 0.4 ppm",100
CCNC(=O)NC(=O)/C(C#N)=N/OC [Cymoxanil],pest or weed control at 2 ppm,Phytophthora infestans; [3],31.7%
same,pest or weed control at 10 ppm,"Phytophthora infestans; Phytophthora infestans, in Solanum lycopersicum, read-out: Test 1 Measured preventive value, component (b) alone, 10 ppm",78.3%
same,pest or weed control at 50 ppm,"Phytophthora infestans; Phytophthora infestans, in Solanum lycopersicum, read-out: Test 1 Measured preventive value, component (b) alone, 50 ppm",100%
same,Test 2 Measured preventive value,"[1]; component (b) alone, 2 ppm",0
same,Test 2 Measured preventive value,"[1]; component (b) alone, 10 ppm",0
same,Test 2 Measured preventive value,"[1]; component (b) alone, 50 ppm",46.3
Cc1cc(C2CC2)nc(Nc2ccccc2)n1 [Cyprodinil],pest or weed control at 20 ppm,"Phytophthora infestans; Phytophthora infestans, in Solanum lycopersicum, read-out: Test 1 Measured, component (b) alone 20 ppm",0%
same,pest or weed control at 100 ppm,"Phytophthora infestans; Phytophthora infestans, in Solanum lycopersicum, read-out: Test 1 Measured, component (b) alone 100 ppm",0%
same,pest or weed control at 500 ppm,"Phytophthora infestans; Phytophthora infestans, in Solanum lycopersicum, read-out: Test 1 Measured, component (b) alone 500 ppm",0%
same,pest or weed control at 20 ppm,"[1]; Pseudoperonospora cubensis, component (b) alone 20 ppm, read-out: Test 2 Measured",0%
same,pest or weed control at 100 ppm,"[1]; Pseudoperonospora cubensis, component (b) alone 100 ppm, read-out: Test 2 Measured",0%
COc1ccc(C(=CC(=O)N2CCOCC2)c2ccc(Cl)cc2)cc1OC [Dimethomorph],pest or weed control at 0.4 ppm,Phytophthora infestans; [2],11.7%
same,pest or weed control at 2 ppm,Phytophthora infestans; [3],26.7%
same,Test 2 Measured preventive value,"[1]; component (b) alone, 0.4 ppm",0
same,Test 2 Measured preventive value,"[1]; component (b) alone, 2 ppm",62.5
same,Test 2 Measured preventive value,"[1]; component (b) alone, 10 ppm",95.5
CCNc1nc(CC)c(C(=O)NC(C#N)c2cccs2)s1 (stereo not drawn) [Ethaboxam],Test 1 Measured preventive value,"Phytophthora infestans; component (b) alone, 2 ppm",95
same,Test 1 Measured preventive value,"Phytophthora infestans; component (b) alone, 10 ppm",98.3
same,Test 1 Measured preventive value,"Phytophthora infestans; component (b) alone, 50 ppm",97.8
same,Test 2 Measured preventive value,"[1]; component (b) alone, 2 ppm",88.3
same,Test 2 Measured preventive value,"[1]; component (b) alone, 10 ppm",99.5
same,Test 2 Measured preventive value,"[1]; component (b) alone, 50 ppm",100
